Marks after values point to notes of the source that are not given here.
Experiments:
[1] = tested on: GV oocytes from 7-8-week-old CF1 mice; test: In vitro maturation (IVM) of GV oocytes from young CF1 mice, metaphase II egg karyotyping (chromosome staining only); assay type: cell-based, mouse
Protocol: Immature mouse oocytes (a.k.a. “GV oocytes” for the presence of intact germinal vesicle) from young CF1 mice (7-8 weeks of age) were cultured in medium (control) or medium containing 5 mM DFMO (Garcia-Faroldi et al., 2009).
All metaphase II eggs were subjected to karyotype analyses and counted spreads that contained 18 or more chromosomes and in which all chromosomes were close together, to eliminate over-spread karyotypes. Only hyperploid eggs, those containing 21 or more chromosomes, were considered aneuploid, to avoid artifacts due to loss of chromosomes during preparation of chromosome spreads (Koehler et al., 2006). In this set of experiments, in which only DNA staining was employed, hyperploid oocytes that contained extra whole chromosomes (dyads) were not distinguished from those that contained separated sister(s), because it is often difficult to differentiate a small chromosome dyad and a single sister in telocentric chromosomes such as in mouse.
Metaphase II eggs were karyotyped with chromosome staining only. N: total number of interpretable metaphase II spreads, with 18 or more chromosomes. Hypoploid: 18-19 chromosomes. Euploid: 20 chromosomes. Hyperploid: 21 chromosomes.
Mice were euthanized by cervical dislocation 44-46 h after they were primed with 5 IU equine chorionic gonadotropin (eCG) intraperitonally. […] Ovaries were immediately removed and minced in M2 medium (Sigma; unless otherwise indicated, other chemicals used in this study were also purchased from Sigma) to release oocytes. Oocytes with a clear germinal vesicle (GV) were used for in vitro maturation (IVM) for 17 hours in IVM medium (αMEM medium supplemented with 5% fetal bovine serum and 1 mM L-glutamine) overlaid with mineral oil.
Chromosome spread was carried out according to Hodges and Hunt (Hodges & Hunt, 2002) with minor modifications. In brief, oocytes or 2-cell embryos were collected in M2 medium. The zona pellucida was removed by treatment with 0.5 units/μl pronase at 37° C. for 20 sec. Zona-free oocytes/embryos were rinsed in M2 medium to detach polar bodies. The oocytes/embryos were individually plated onto glass slides (1-10 oocytes/embryos per slide) predipped in the fixative (prepared weekly and stored at 4° C.) containing 1% paraformaldehyde (w/v), 0.15% Triton X-100 (v/v), and 3 mM dithiothreitol, pH 9.2. Slides were kept overnight in moist boxes at room temperature. The slides were then rinsed in 0.5% Kodak Flo (Eastman Kodak Company, Rochester, N.Y.) solution and air-dried. The slides were incubated in 1:200 diluted human anti-centromere serum (Immunovision, Springdale, Ark.) in PBS containing 1% BSA overnight at 4° C., in 1:300 diluted secondary antibody (goat anti-human) conjugated with rhodamine (Jackson ImmunoResearch) in PBS-BSA for 1 h at room temperature, and 0.1% SYTOX green (Invitrogen, Eugene, Oreg.) in PBS for 30 min at room temperature. To avoid bias, the slides were coded by a colleague before being examined by an investigator using epifluorescence microscopy and photographed. Decoding was done after karyotypes were tabulated.

[2] = tested on: young (7-8 weeks) CF1 mice; test: DFMO in mouse drinking water, karyotyping of oviduct-derived metaphase II eggs; assay type: in vivo
From the text: The effect of DFMO on egg aneuploidy in vivo was also examined. […] Oviduct-derived metaphase II eggs, from control mice and DFMO treated mice, were subjected to karyotype analyses. In these and all subsequent egg karyotype analyses, anti-CREST antibodies were used to label centromeres (Hodges & Hunt, 2002), in addition to DNA staining. This modification allowed unambiguous identification of single sister chromatid(s) in metaphase II eggs, termed premature separation of sister chromatids (PSSC), the predominant form of mouse egg aneuploidies found in this study (see Table 3).
Hypoploid: 18-19 dyads. Euploid: 20 dyads. Hyperploid: 21 or 22 dyads. […] Aneuploid: 2×hyperploid+PSSC. Detailed breakdowns are in Table 7.
In order to collect mature (metaphase II) oocytes in vivo (ovulation experiments) each mouse was injected with 5 IU human chorionic gonadotropin (hCG) intraperitoneally 44-46 h after eCG priming. The animals were euthanized 16-18 h after hCG injection and MII eggs were flushed out of oviducts in M2 medium and subjected to karyotype analyses as described below. For mice that were treated with 1% DFMO in drinking water, the drugs were present until the time of euthanization (see FIG. 4 for details).
(§1) Decoding was done after karyotypes were tabulated.

[3] = tested on: GV oocytes from young hybrid F1 females (C57BL/6 x SPRET/Ei); test: IVM of GV oocytes from young hybrid F1 females, metaphase II egg karyotyping; assay type: cell-based, mouse; conditions: 17 h IVM, 5 mM DFMO
Protocol: Table 8 DFMO increases the egg aneuploidy rate of young hybrid F1 females. GV oocytes isolated from young (7-8 weeks) hybrid F1 females, via crossing C57BL/6 females and SPRET/Ei males, were incubated for 17 h in αMEM (control) or αMEM containing 5 mM DFMO. […] Hypoploid: 18-19 dyads. Euploid: 20 dyads. Hyperploid: 21 or 22 dyads. […] Aneuploid: 2×hyperploid+PSSC. Detailed breakdowns are in Table 9.
Two other mouse models were additionally used. First, DFMO was tested as a potential treatment to […] egg aneuploidy in the hybrid F1 females that has a high baseline aneuploidy rate similar to human (Koehler et al., 2006).
as §1

[4] = tested on: 2-cell embryos of young CF1 mice; test: DFMO in mouse drinking water prior to mating, 2-cell embryo karyotyping; assay type: in vivo
Protocol: Table 10 DFMO in mouse drinking water increases hyperploid 2-cell embryos. Young (7-8 weeks) CF1 mice were treated with regular water (control), or 1% DFMO drinking water for 48 h, prior to mating (see FIG. 5 for details). Embryos (2-cell) were isolated and subjected to karyotype analyses. N: Total interpretable 2-cell embryos. Euploid: 40 chromosomes in each of the two blastomeres, or 40 chromosomes in one blastomere with the other blastomere having less than 40 chromosomes or uninterpretable/lost. Hypoploid: 39 chromosomes in each of the two blastomeres, or 39 in one blastomere with the other less than 39 or uninterpretable/lost. Hyperploid: 41 chromosomes in at least one blastomere (we found no 42 or more chromosomes in this study). Detailed breakdowns are in Table 11.
To produce 2-cell embryos, mice were sequentially injected with eCG and hCG, as above for ovulation. After hCG injection, the females were caged singly with fertile young males overnight. For mice that were treated with 1% DFMO, the drug was withdrawn, and normal water resumed, at the time of hCG injection (see […] for details). The females were separated from the males in the next morning (day 1 post coital or p.c.). Females were euthanized in the late morning on day 2 p.c., and the embryos were collected by flushing the oviducts with M2 medium. After three rinses in KSOM medium, the embryos were cultured 17 h in KSOM containing 0.02 μg/ml colchicine to cause metaphase arrest of the 2-cell embryos.
as §1

ovarian ODC = target: T1, ovarian ODC (Mus musculus, UniProt P00860); test: Ovarian ODC activity assay; assay type: in vivo; conditions: 1% DFMO in drinking water, hCG-stimulated 8-week-old mice
T1 construct: The ovarian homogenates were centrifuged at 16,000×g for 10 min; Supernatants were applied to ODC assays; from tissue; host or cells: mouse ovary (C57BL/6, 8 weeks old, hCG-stimulated), homogenate supernatant
T1 sequence (P00860 1-461): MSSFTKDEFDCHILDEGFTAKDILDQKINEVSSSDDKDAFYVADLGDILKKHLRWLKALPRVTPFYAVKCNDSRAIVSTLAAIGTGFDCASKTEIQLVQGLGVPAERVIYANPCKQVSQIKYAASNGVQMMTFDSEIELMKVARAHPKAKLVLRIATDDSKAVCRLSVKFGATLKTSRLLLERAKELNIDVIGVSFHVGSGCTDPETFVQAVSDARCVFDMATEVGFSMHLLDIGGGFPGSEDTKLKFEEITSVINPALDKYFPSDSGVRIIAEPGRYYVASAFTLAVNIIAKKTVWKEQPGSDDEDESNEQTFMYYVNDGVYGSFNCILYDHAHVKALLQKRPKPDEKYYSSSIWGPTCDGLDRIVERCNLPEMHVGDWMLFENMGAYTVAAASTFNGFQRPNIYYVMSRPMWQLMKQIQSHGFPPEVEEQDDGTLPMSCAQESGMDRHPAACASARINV
Protocol: After 44-46 h eCG priming, or 6 h following the subsequent hCG injection, the ovaries were collected into Eppendorf tubes and frozen at −80° C. immediately till use. The ovaries were weighed and minced with optical scissors. Lysis buffer (25 mM Tris/HCl pH 7.2, 2 mM dithiothreitol, 0.1 mM EDTA, 0.25 M sucrose, 0.1% Triton X-100 (v/v); modified from Bastida et al. (Bastida et al., 2005) was added 25 μL per mg ovarian tissues and the resulting suspension homogenized by sonication (Fisher Sonic Demembrator, New York, USA) for 20 seconds thrice. The ovarian homogenates were centrifuged at 16,000×g for 10 min. Supernatants were applied to ODC assays (Zhou et al., 2009) in microtiter plates, each well containing 50 μL of lysate, plus 0.1 mM pyridoxyl-5-phosphate and 0.5 μCi (57.1 mCi/mmol) of 14C-labeled ornithine (PerkinElmer, Boston, Mass.). The wells were tightly covered with 3MM paper pre-wet in freshly prepared water-saturated Ba(OH)2. The wells were incubated 1 h at 37° C. ^14CO2 released from decarboxylation reaction formed Ba^14CO3 precipitates on filter. […] The Storage phosphor screen was then scanned on Typhoon™ imaging system (GE Healthcare Life Sciences), resulting in digital images that were then quantified by Image Quant5.2 (GE Healthcare Life Sciences). ODC activity is expressed as relative light intensity in arbitrary units.

ovarian polyamines = test: Ovarian polyamine quantification by ion chromatography; assay type: in vivo, mouse; conditions: 1% DFMO in drinking water for 48 hours up to sacrifice
Protocol: A Dionex ion chromatography system was used to analyze polyamines during ovulation. This system employs an online conductivity detector coupled with an anion suppressor such that only cations are detected. Ovaries were extracted in 5% trichloric acid (TCA) followed by extraction with diethyl ether. The TCA extracts were diluted in water before being applied to the ion chromatography system.
Polyamines from ovarian samples were determined by ion chromatography (IC) system (Rey and Pohl, 2003. J. Chromatography A 997:199-206). Ovaries were collected immediately after animal sacrifice and stored at −80° C. until use. The samples were thawed and minced, and then 5% trichloroacetic acid (TCA) was added (20 μl/mg). The samples were ultra-sonicated 30 seconds thrice. After centrifugation, the supernatants were extracted twice with diethyl ether. The mouse blood was collected in a tube containing 1 iu/ml heparin (LEO). After centrifugation, the supernatant (plasma) was collected and 10% TCA was added by 1:1 in volume. These plasma samples were extracted twice with diethyl ether, as noted above. The extracts were diluted 10 times in water for polyamine analysis on Dionex Ion ICS-2100 system (Thermo scientific, Dionex, Sunnyvale, Calif., USA) according to the manufacture instructions, using the support software of PeakNet 6.40 SP5 Build 778.

[5] = number of ovulated MII eggs, 1% DFMO drinking water 48 h
[6] = number of 2-cell embryos, 1% DFMO drinking water 48 h prior to mating
[7] = percent of interpretable 2-cell embryos, 1% DFMO drinking water 48 h

## NCCC[C@](N)(C(=O)O)C(F)F [DFMO, α-difluoromethylornithine]
[1]; 5 mM DFMO in IVM medium, 776/945
  first polar body emission: 82%
[1]; 17 h IVM, 5 mM
  % Hyperploidy: 4.9 * %
[1]; number of MII eggs with 18 chromosomes, 17 h IVM, 5 mM each agent in αMEM
  Hypoploid 18: 2
[1]; number of MII eggs with 19 chromosomes, 17 h IVM, 5 mM
  Hypoploid 19: 18
[1]; number of MII eggs with 20 chromosomes, 17 h IVM, 5 mM
  Eupoloid 20: 175
[1]; number of MII eggs with 21 chromosomes, 17 h IVM, 5 mM
  Hyperploid 21: 10
[1]; number of MII eggs with 22 chromosomes, 17 h IVM, 5 mM
  Hyperploid 22: 0
[2]; 1% DFMO drinking water 48 h
  % Hyperploidy: 1.1** %
[2]; 1% DFMO drinking water, n=37
  number of MII eggs collected from the oviducts: 29.3 /mouse
[2]; Aneuploid: 2×hyperploid+PSSC, 1% DFMO drinking water 48 h
  % Aneuploidy: 7.7%
[2]; number of eggs with separated sister chromatid(s), 1% DFMO drinking water 48 h
  PSSC: 14*
[2]; [5]
  Eupoloid 20: 191
  Hyperploid 21: 3
  Hyperploid 22: 0
  Hypoploid 18: 12
  Hypoploid 19: 41
[3]
  % Hyperploidy: 2.5** %
[3]; Aneuploid: 2×hyperploid+PSSC
  % Aneuploidy: 22.5%
[3]; number of MII eggs
  Euploid 20: 50
  Hyperploid 21: 2
  Hyperploid 22: 0
  Hypoploid 18: 5
  Hypoploid 19: 9
  PSSC: 14*
[4]; [6]
  Euploid 40: 38
  Hyperploid 41: 5
  Hypoploid 39: 5
[4]; [7]
  Euploid 40: 79.2%
  Hyperploid 41: 10.4%
  Hypoploid 39: 10.4%
Ovarian ODC
  ovarian ODC activity: efficiently inhibited
Ovarian polyamines
  hCG-mediated ovarian putrescine increase: completely eliminated

Source: patent US9248108B2 (Ottawa Hospital Research Institute, priority 2012, dated 2016)
